Source: PMC6149822, “A New Series of Pyrrole-Based Chalcones: Synthesis and Evaluation of Antimicrobial Activity, Cytotoxicity, and Genotoxicity” (Molecules : A Journal of Synthetic Chemistry and Natural …, 2017)
≈ marks a conversion by molar mass, not a printed value.

Tests used:
C. albicans (ATCC 90028) = assay: Microdilution susceptibility assay (MIC); assay type: cell-based; conditions: Candida albicans, ATCC90028
Procedure: (§1) Compounds 1–10 were screened for their antimicrobial activity against gram-negative bacteria, gram-positive bacteria, and yeasts, listed in Table 1. Bacteria were grown in Mueller-Hinton Broth and yeasts were grown in Sabouraud Dextrose Broth (SDB) during experiments. Overnight cultures were prepared routinely by subculturing of stock culture onto Mueller-Hinton Agar for bacteria and Sabouraud Dextrose Agar for yeasts.
(§2) Microdilution susceptibility assay was used for the determination of antibacterial and anticandidal efficacy of compounds 1–10. Chloramphenicol and ketoconazole were used as positive controls for bacteria and yeasts, respectively. All experiments were designed according to the Clinical Laboratory Standards Institute (CLSI). All chemicals were dissolved in dimethyl sulfoxide (DMSO) to obtain stock solution (10 mg/mL). Two-fold serial dilutions (800, 400, 200...0.78 µg/mL) of the compounds were prepared from stock solutions with dH2O. 100 µL of each solution was transferred to 96-well microtiter plates and 100 µL of 10^6 CFU/mL of bacteria and 2 × 10^3 of CFU/mL yeast were added to related wells. As negative controls, wells including microorganisms without agents and wells including agents without microorganisms were used. The plates were kept at 35 °C for 18–20 h and the growth was determined with resazurin (20 mg/mL). Assays were carried out in triplicate.

E. coli (ATCC 25922) = assay: Microdilution susceptibility assay (MIC); assay type: cell-based; conditions: Escherichia coli, ATCC25922
Procedure: as §1, §2

E. faecalis (ATCC 29212) [1] = assay: Microdilution susceptibility assay (MIC); assay type: cell-based; conditions: Enterococcus faecalis, ATCC29212
Procedure: as §1, §2

E. faecalis (ATCC 51299) [2] = assay: Microdilution susceptibility assay (MIC); assay type: cell-based; conditions: Enterococcus faecalis, ATCC51299
Procedure: as §1, §2

[3] = system: K. pneumoniae (ATCC 700603); assay: Microdilution susceptibility assay (MIC); assay type: cell-based; conditions: Klebsiella pneumoniae, ATCC700603
Procedure: as §1, §2

S. aureus (ATCC 25923) = assay: Microdilution susceptibility assay (MIC); assay type: cell-based; conditions: Staphylococcus aureus, ATCC25923
Procedure: as §1, §2

C. glabrata (ATCC 90030) = assay: Microdilution susceptibility assay (MIC); assay type: cell-based, Candida glabrata; conditions: Nakaseomyces glabratus, ATCC90030
Procedure: as §1, §2

[4] = system: C. parapsilosis (ATCC 22019); assay: Microdilution susceptibility assay (MIC); assay type: cell-based, Candida parapsilosis; conditions: Lodderomyces parapsilosis, ATCC22019
Procedure: as §1, §2

C. krusei (ATCC 6258) = assay: Microdilution susceptibility assay (MIC); assay type: cell-based, Candida krusei; conditions: Pichia kudriavzevii, ATCC6258
Procedure: as §1, §2

E. faecalis (ATCC 51299) [5] = assay: ATP luminescence microbial cell viability assay; assay type: cell-based, Enterococcus faecalis; conditions: 24 h treatment, result in words
Procedure: (§3) A model from BioTek Instruments Inc. combined with a BacTiter-Glo^TM Microbial Cell Viability assay (Promega Corp., Madison, WI, USA) was used to provide a sensitive and rapid method for determining the number of viable microbial cells in culture based on quantitation of the ATP present. […] After incubation, cultures were added into the wells (final concentration of bacteria was 5 × 10^5 CFU/mL and 2.5 × 10^6 CFU/mL for yeasts). After adding the BacTiter reagent, incubation time for bacteria and yeasts was 5 min and 15 min, respectively.
(§4) The assay generates a “glow-type” luminescent signal, produced by the luciferase reaction. Briefly, after chemicals and strains were incubated for 24 h, 100 µL of the culture was taken from each well and mixed with the same volume of the BacTiter-Glo™ reagent in a white, opaque-walled microtiter plate. Control wells containing medium without cells were prepared to obtain a value for background luminescence. Cells without compound were used as an ATP-positive control. The microplates were further incubated under agitation for 7 min. Bioluminescence was recorded in a multi-detection microplate reader (BioTek Synergy 2 Multi-Mode Microplate Reader, BioTek Instruments, Winooski, VT, USA). In Figure 3, results were given as percentage of untreated control, which is set at 100%. Experiments were performed in triplicate and each sample was measured in four replicates.

[6] = system: A549 human lung adenocarcinoma cell line; assay: MTT assay; assay type: cell-based; conditions: for IC50: Homo sapiens, A549
Procedure: (§5) The anticancer effects of compounds 1–10 on A549 human lung adenocarcinoma (ATCC® CCL-185™), HepG2 human hepatocellular carcinoma (ATCC® HB-8065™), and C6 rat glioma (ATCC® CCL107™) cell lines were assessed using 3-(4,5-Dimethylthiazol-2-yl)-2,5-diphenyltetrazolium bromide (MTT) assay, whereas the selectivity of compounds 1–10 was tested using NIH/3T3 mouse embryonic fibroblast cell line (ATCC® CRL-1658™, London, UK). All cell lines were incubated according to the supplier’s recommendations. The cells were seeded as 1 × 10^4 cells into each well of the 96-well plates. MTT assay was performed as previously described. The compounds were tested between the concentrations equal to 1 mM and 0.000316 mM (1.0, 0.316, 0.10, 0.0316, 0.01, 0.00316, 0.001, 0.000316 mM). Stock solutions of compounds were prepared in dimethyl sulfoxide (DMSO) and further dilutions were made with fresh culture medium. The final DMSO concentration was under 1% [34] and cisplatin was used as a positive control. Inhibition % was calculated for each concentration according to the formula below, and IC50 values were determined by plotting a dose–response curve of inhibition % versus compound concentrations tested. All experiments were performed in quadruplicate.Inhibition % = 100 − [(ODtest compound − ODblank/ODsolvent control − ODblank)] × 100(1)

C6 rat glioma cell line = assay: MTT assay; assay type: cell-based; conditions: for IC50: Rattus norvegicus, C6
Procedure: as §5

[7] = system: HepG2 human hepatocellular carcinoma cell line; assay: MTT assay; assay type: cell-based; conditions: for IC50: Homo sapiens, HepG2
Procedure: as §5

[8] = system: NIH/3T3 mouse embryonic fibroblast cell line; assay: MTT assay; assay type: cell-based; conditions: for IC50: Mus musculus, NIH3T3, healthy cells for selectivity
Procedure: as §5

E. faecalis (ATCC 29212) [9] = assay: ATP luminescence microbial cell viability assay; assay type: cell-based, Enterococcus faecalis; conditions: 24 h treatment, result in words
Procedure: as §3, §4

C. glabrata = assay: ATP luminescence microbial cell viability assay; assay type: cell-based, Candida glabrata; conditions: 24 h treatment, result in words
Procedure: as §3, §4

Structure (SMILES) | MIC (C. albicans (ATCC 90028)) | MIC (E. coli (ATCC 25922)) | MIC (E. faecalis (ATCC 29212) [1]) | MIC (E. faecalis (ATCC 51299) [2]) | MIC [3] | MIC (S. aureus (ATCC 25923)) | MIC (C. glabrata (ATCC 90030)) | MIC [4] | MIC (C. krusei (ATCC 6258)) | IC50 [6] | IC50 (C6 rat glioma cell line) | IC50 [7] | melting point | antimicrobial activity in ATP bioluminescence assay (E. faecalis (ATCC 51299) [5]) | IC50 [8] | antimicrobial activity in ATP bioluminescence assay (E. faecalis (ATCC 29212) [9]) | also measured
Cn1cccc1C(=O)C=Cc1ccc(-c2ccc(Cl)c(Cl)c2)o1 [Compound 10, 1-(1-Methyl-1H-pyrrol-2-yl)-3-(5-(3,4-dichlorophenyl)furan-2-yl)prop-2-en-1-one] | 100 µg/mL (≈ 289 µM) | 100 µg/mL (≈ 289 µM) | 400 µg/mL (≈ 1160 µM) | 100 µg/mL (≈ 289 µM) | 200 µg/mL (≈ 578 µM) | 200 µg/mL (≈ 578 µM) | 200 µg/mL (≈ 578 µM) | 100 µg/mL (≈ 289 µM) | 200 µg/mL (≈ 578 µM) | 346 µg/mL (≈ 999 µM) | 100 µg/mL (≈ 289 µM) | 100 µg/mL (≈ 289 µM) | 132 to 133 °C | antimicrobial activity close to chloramphenicol | 148 µg/mL (≈ 427 µM) |  | 
N.N.[Cl][Pt][Cl] [Cisplatin, reference compound] |  |  |  |  |  |  |  |  |  |  |  |  |  |  |  |  | IC50 A549 Cell Line [6]: 19 µg/mL; IC50 C6 Cell Line (C6 rat glioma cell line): 46 µg/mL; IC50 HepG2 Cell Line [7]: 38 µg/mL; IC50 NIH/3T3 Cell Line ([8]; healthy cells for selectivity): >300 µg/mL
Cn1cccc1C(=O)C=Cc1ccc(-c2cccc([N+](=O)[O-])c2)o1 [Compound 2, 1-(1-Methyl-1H-pyrrol-2-yl)-3-(5-(3-nitrophenyl)furan-2-yl)prop-2-en-1-one] | 100 µg/mL (≈ 310 µM) | 100 µg/mL (≈ 310 µM) | 100 µg/mL (≈ 310 µM) | 100 µg/mL (≈ 310 µM) | 200 µg/mL (≈ 621 µM) | 200 µg/mL (≈ 621 µM) | 100 µg/mL (≈ 310 µM) | 100 µg/mL (≈ 310 µM) | 100 µg/mL (≈ 310 µM) | 322 µg/mL (≈ 999 µM) | 258 µg/mL (≈ 800 µM) | 277 µg/mL (≈ 859 µM) | 123 to 124 °C | antimicrobial activity close to chloramphenicol | > 322 µg/mL | sensitive | 

Further compounds by falling MIC (C. albicans (ATCC 90028)), results first:

MIC (C. albicans (ATCC 90028)) | MIC (E. coli (ATCC 25922)) | MIC (E. faecalis (ATCC 29212) [1]) | MIC (E. faecalis (ATCC 51299) [2]) | MIC [3] | MIC (S. aureus (ATCC 25923)) | MIC (C. glabrata (ATCC 90030)) | MIC [4] | MIC (C. krusei (ATCC 6258)) | IC50 [6] | IC50 (C6 rat glioma cell line) | IC50 [7] | melting point | Structure (SMILES) | antimicrobial activity in ATP bioluminescence assay (E. faecalis (ATCC 51299) [5]) | IC50 [8] | antimicrobial activity in ATP bioluminescence assay (E. faecalis (ATCC 29212) [9]) | also measured
200 µg/mL (≈ 578 µM) | 100 µg/mL (≈ 289 µM) | 200 µg/mL (≈ 578 µM) | 400 µg/mL (≈ 1160 µM) | 200 µg/mL (≈ 578 µM) | 400 µg/mL (≈ 1160 µM) | 100 µg/mL (≈ 289 µM) | 100 µg/mL (≈ 289 µM) | 50 µg/mL (≈ 144 µM) | 225 µg/mL (≈ 650 µM) | 90 µg/mL (≈ 260 µM) | 106 µg/mL (≈ 306 µM) | 98 to 99 °C | Cn1cccc1C(=O)C=Cc1ccc(-c2ccc(Cl)cc2Cl)o1 [Compound 8, 1-(1-Methyl-1H-pyrrol-2-yl)-3-(5-(2,4-dichlorophenyl)furan-2-yl)prop-2-en-1-one] |  | 277 µg/mL (≈ 800 µM) |  | antifungal activity in ATP bioluminescence assay (C. glabrata): antifungal activity close to ketoconazole
100 µg/mL (≈ 310 µM) | 100 µg/mL (≈ 310 µM) | 100 µg/mL (≈ 310 µM) | 200 µg/mL (≈ 621 µM) | 200 µg/mL (≈ 621 µM) | 200 µg/mL (≈ 621 µM) | 200 µg/mL (≈ 621 µM) | 100 µg/mL (≈ 310 µM) | 200 µg/mL (≈ 621 µM) | 0.3 µg/mL (≈ 0.931 µM) | 84 µg/mL (≈ 261 µM) | 322 µg/mL (≈ 999 µM) | 179 to 181 °C | Cn1cccc1C(=O)C=Cc1ccc(-c2ccc([N+](=O)[O-])cc2)o1 [Compound 1, 1-(1-Methyl-1H-pyrrol-2-yl)-3-(5-(4-nitrophenyl)furan-2-yl)prop-2-en-1-one] |  | 109 µg/mL (≈ 338 µM) | sensitive | 
